Experiment [1] relates to HT-29. In words: Cytotoxic effect on human colon carcinoma HT-29 cell line. In kind it is functional. The conditions noted are these: read-out: ID50 (the source's name).
The target of experiment [2] is Tyrosine-protein kinase Lck (Homo sapiens, UniProt P06239). The experiment can be described thus: Inhibition of lck catalytic domain expressed in baculovirus.

Each structure is given as a SMILES string.

The record followed here is ChEMBL document CHEMBL1134820, “Synthesis of antitumor dendritic imides” (Bioorg Med Chem Lett, 2001).

Sequence of Tyrosine-protein kinase Lck (P06239 whole entry, the tested form may be a part): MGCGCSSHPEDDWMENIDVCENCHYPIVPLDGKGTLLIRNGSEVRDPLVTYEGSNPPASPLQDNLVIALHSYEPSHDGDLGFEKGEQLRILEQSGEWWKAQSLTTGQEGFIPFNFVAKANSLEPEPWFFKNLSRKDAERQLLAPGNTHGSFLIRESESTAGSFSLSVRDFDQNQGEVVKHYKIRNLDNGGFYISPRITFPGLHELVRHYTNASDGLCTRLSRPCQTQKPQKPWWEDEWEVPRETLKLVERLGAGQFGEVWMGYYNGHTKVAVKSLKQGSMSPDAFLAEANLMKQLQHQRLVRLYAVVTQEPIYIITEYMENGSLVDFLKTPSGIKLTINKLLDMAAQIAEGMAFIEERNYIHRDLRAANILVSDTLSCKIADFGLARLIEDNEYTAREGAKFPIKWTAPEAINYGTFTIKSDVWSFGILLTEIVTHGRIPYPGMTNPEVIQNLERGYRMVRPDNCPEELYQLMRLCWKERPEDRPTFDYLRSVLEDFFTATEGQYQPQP

Turning to `N#CCCN(CCC#N)CCCN(CCCN(CCC#N)CCC#N)CCCN(CCN)CCCN(CCCN(CCC#N)CCC#N)CCCN(CCC#N)CCC#N`, in experiment [1], the IC50 is over 100 µM.

For the compound `NCCCN(CCCN)CCCN(CCCN(CCCN)CCCN)CCCN(CCCN(CCCN(CCCN)CCCN)CCCN(CCCN)CCCN)CCN1C(=O)c2cccc3cccc(c23)C1=O`, the IC50 in experiment [1] was determined as 44 µM.

On to `N#CCCN(CCC#N)CCCN(CCCN(CCC#N)CCC#N)CCCN(CCCN(CCCN(CCC#N)CCC#N)CCCN(CCC#N)CCC#N)CCN1C(=O)c2cccc3cccc(c23)C1=O`, for which the IC50 in experiment [1] was over 100 µM; in experiment [2], over 50 µM.

For `N#CCCN(CCC#N)CCCN(CCCN(CCC#N)CCC#N)CCCN(CCCN(CCCN(CCC#N)CCC#N)CCCN(CCC#N)CCC#N)CCN1C(=O)c2cccc3cc(N)cc(c23)C1=O`, the IC50 in experiment [1] is over 100 µM.

In the case of `N#CCCN(CCC#N)CCCN(CCCN(CCC#N)CCC#N)CCCN(CCCN(CCCN(CCC#N)CCC#N)CCCN(CCC#N)CCC#N)CCN1C(=O)c2cccc3cc([N+](=O)[O-])cc(c23)C1=O`, the IC50 in experiment [1] is over 100 µM.

Consider `N#CCCN(CCC#N)CCCN(CCCN(CCC#N)CCC#N)CCCN(CCCN(CCCN(CCC#N)CCC#N)CCCN(CCC#N)CCC#N)CCN1C(=O)C(c2ccccc2)=C(c2ccccc2)C1=O`, for which the IC50 is 57 µM in experiment [1] and over 50 µM in experiment [2].

In the case of `NCCCN(CCCN)CCCN(CCCN(CCCN)CCCN)CCCN(CCCN(CCCN(CCCN)CCCN)CCCN(CCCN)CCCN)CCN1C(=O)C(c2ccccc2)=C(c2ccccc2)C1=O`, the IC50 in experiment [1] worked out at 100 µM.

Take `CN(C)CCN1C(=O)c2cccc3cc(N)cc(c23)C1=O` [AMONAFIDE]: the IC50 in experiment [1] was determined as 38 µM.

Regarding `O=C1c2cccc3cccc(c23)C(=O)N1CCNCCCNCCN1C(=O)c2cccc3cccc(c23)C1=O` [ELINAFIDE], in experiment [1], the IC50 came to 0.014 µM.
